Data as given in patent US8598122B2, “Antagonistic peptides for frizzled-1 and frizzled-2” (Universiteit Maastricht, priority 2009, dated 2013).
Entries after “also recorded” stand apart in the source; their conditions may differ. Where a SMILES comes first, the peptide text is derived from it.

How the values were obtained:
[1] = biological target: T1, frizzled-1 (rFzd-1) (Rattus norvegicus, UniProt Q08463); assay: Activity assay: Wnt3a-induced luciferase (superTOPflash) in HEK cells transfected with frizzled-1; assay type: cell-based; details: peptide 1.10^−8 M
T1 construct: expressed in transfected cells; host or cells: HEK293 superTOPflash (human embryonic kidney), transient, pcDNA3.1/hygro
Method: (§1) Human embryonic kidney (HEK) cells were used for screening. These cells have a luciferase construct stably transfected into the genome (see FIG. 2A), such that when the frizzled receptor is activated and β-catenin is increased, the luciferase is activated by transcription and light can be measured.
(§2) The peptides were tested by transfecting the frizzled-1 or the frizzled-2 receptor and addition of UM206(S-S) to the cell culture. For testing antagonistic activity, UM206 was added and the natural ligand Wnt3a was added, which is a natural stimulus for the canonical pathway.
Day 2: Transfection 12-well plates • heat Fugene6 and DNA 15 minutes at RT • 2 ml serum-free medium in tube • add 3μl fugene • add 2 μg DNA • incubate 30 minutes at RT • wash with PBS • add 50 μtransfectiemix • add 1 ml antibiotica-free medium
Day 3: Add conditioned medium or UM206
Day 4: Luciferase activity measurements • remove medium • wash with PBS • add 500 μl ⅕ lysisbuffer • shake for 60 minutes • centrifuge in tube • 20 μl lysaat and 50 μl luciferase in new tube for measurement • vortex • measure
To determine the inhibitory constant of UM206-8, HEK293-superTOPflash cells were transfected with either rFzd-1 or -2 and incubated with Wnt3a (10^−9M) in the presence of increasing concentrations of either of the peptides (FIG. 15). For UM206, a biphasic inhibition curve was observed that was best fitted with a two-binding-state model.
(§3) The cell lines were cultured in 75 cm^2 culture flasks (Corning, Schiphol, the Netherlands) in Dulbeco's modified essential medium with L-glutamine (2 mM), 10% fetal calf serum (Invitrogen, Merelbeke, Belgium), and 1% gentamycin (Sigma-Aldrich, Zwijndrecht, The Netherlands). Before starting the experiment, the cell lines were treated with plasmocin 25 μg/ml (Invivogen, Toulose, France) and tested with a mycoalert mycoplasma detection kit (Lonza, Rockland Me., USA). Cells were transiently transfected with Fugene6 (Roche, Indianapolis Ind., USA) with plasmid DNA, pcDNA3.1/hygro (Invitrogen) with frizzled-1/2/4 or Wnts 3a-5a or with pcDNA3.0 (Invitrogen) containing the β-catenin or frizzled-5 sequence. After transfection, the cells were cultured for 24 hours in conditioned medium, collected from the cultured L-cells, L-cells with Wnt3a or 5a (Invitrogen). At the same moment the antagonist was added.

[2] = biological target: T2, hFzd-5 (Homo sapiens, UniProt Q13467); assay: Luciferase activity in HEK293 superTOPflash cells overexpressing hFzd-5; assay type: cell-based; details: 1.10^−8 M
T2 construct: expressed in transfected cells; host or cells: HEK293 superTOPflash, transient, pcDNA3.0
Method: (§4) In FIG. 3, Panel E, the efficacy of UM206 to block the Wnt3a-induced activation of luciferase activity in HEK293 superTOPflash cells transfected with different Fzds is shown.
as §3

[3] = biological target: T3, mouse Fzd-1 (Mus musculus, UniProt O70421); assay: Antagonism of Wnt3a activation of mouse Fzd-1 (data not shown); assay type: cell-based
T3 construct: expressed in transfected cells
Excerpt: as §4

[4] = biological target: T4, human Fzd-1 (Homo sapiens, UniProt Q9UP38); assay: Antagonism of Wnt3a activation of human Fzd-1 (data not shown); assay type: cell-based
T4 construct: expressed in transfected cells
Excerpt: as §4

[5] = biological target: T5, human Fzd-2 (Homo sapiens, UniProt Q14332); assay: Antagonism of Wnt3a activation of human Fzd-2 (data not shown); assay type: cell-based
T5 construct: expressed in transfected cells
Excerpt: as §4

[6] = system: frizzled receptor; assay: Activity on the frizzled receptor (activity assay of Example 1), result in words; assay type: cell-based
Method: as §1, §2
Analogues of UM206 were prepared by solid phase peptide synthesis. Each amino acid residue was sequentially replaced by an alanine residue and antagonistic activity of the analogue was tested as described in the activity assay of Example 1. […] Titles indicate which amino acid residue was substituted by an alanine residue.

[7] = system: Wnt/Fzd signal transduction cascade; assay: Luciferase activity in HEK293-superTOPflash cells (Wnt/Fzd signal transduction cascade); assay type: cell-based, human; details: without Wnt3a
Excerpt: as §1
Three areas of high homology that contained two cysteines are underlined (UM207), (UM208) and (UM206). In FIGS. 9B through 9D, the inhibitory effect of these three peptides on Wnt3a-induced luciferase activity in HEK293-superTOPflash is shown. […] Again, the peptides by themselves had no effect on the luciferase activity.

[8] = system: C-FIT cells (cardiac fibroblasts immortalized with telomerase); assay: Migration (wound/scratch) assay with C-FIT cells overexpressing Fzd-1 or -2; assay type: cell-based, rat
Method: For this assay, we used rat cardiac fibroblasts, which were immortalized with telomerase, the C-FIT cell line. This cell line was characterized previously and resembles features of primary cardiac fibroblasts. C-FIT cells were plated, treated when they were 70% confluent and a wound was made with a pipette tip at the moment of 100% confluence.
This assay was first tested with the natural ligand Wnt3a, in combination with frizzled-1 and -2 overexpression. […] Next step was to see whether the antagonist could counteract this. (See FIG. 4.)
Day 1: • Plate cells in 12-well plates
Day 2: • Transfection (see protocol)
Day 3: • Addition of conditioned medium
Day 4: • Make a scratch. This is time point zero.
Making pictures every six hours and analyzing the scratch width.
Cells were plated on day 0, and cultured until 70% confluence before transfection or treatment. Migration assays started 48 hours after transfection and/or treatment. The time point where the scratch was made, is indicated as 0 hours. Scratch width was measured at this time point, and also after 6, 12, and 24 hours.

[9] = system: kidney; assay: qPCR of Wnt target genes in kidney after long-term UM206 administration; assay type: in vivo, mice; set-up: key to Rel. exp. Col I / Rel. exp. DDK 2 / Rel. exp. DDK 3 / Rel. exp. Twist: expression normalized to cyclophilin housekeeping gene; key to Rel. exp. α-SMA / Rel. exp. DDK 1 / Rel. exp. α-actin / Rel. exp. LEF / Rel. exp. FN: relative expression, cyclophilin as housekeeping gene
Excerpt: RNA was isolated using the Trizol method (Invitrogen). For the RT-PCR, the RNA was transcribed to cDNA with iscript™ cDNA synthesis kit (Bio-Rad, Hercules Calif., USA), Syber green (Eurogentec, Ghent, Belgium) was used for the detection of cDNA levels and cyclophilin served as the house keeping gene. In Supplementary methods panel 5, the primer sequences are shown.

[10] = mouse, in vivo
Method: UM206 was injected into the femoral artery of Swiss mice (concentration of 10^−9 M). Blood was sampled at different time points in the femoral vein. On the y-axis, the concentration of UM206 in the plasma is shown. This is determined with HPLC and the area under the peak is calculated and shown on the y-axis. All values were corrected for the baseline value.
In order to determine the pharmacokinetic properties of UM206, we injected 15 ng of the compound into the tail vein of mice and monitored the concentration in the blood at different time points.
Male Swiss mice were used (10-12 weeks of age, Charles River, Maastricht, The Netherlands).
Blood samples were collected from the animals for the pharmacokinetics and after 14 to 35 days treatment, to determine the concentration of UM206. Blood was centrifuged and the plasma was treated with 1% TFA.

T1 sequence (Q08463 69-641): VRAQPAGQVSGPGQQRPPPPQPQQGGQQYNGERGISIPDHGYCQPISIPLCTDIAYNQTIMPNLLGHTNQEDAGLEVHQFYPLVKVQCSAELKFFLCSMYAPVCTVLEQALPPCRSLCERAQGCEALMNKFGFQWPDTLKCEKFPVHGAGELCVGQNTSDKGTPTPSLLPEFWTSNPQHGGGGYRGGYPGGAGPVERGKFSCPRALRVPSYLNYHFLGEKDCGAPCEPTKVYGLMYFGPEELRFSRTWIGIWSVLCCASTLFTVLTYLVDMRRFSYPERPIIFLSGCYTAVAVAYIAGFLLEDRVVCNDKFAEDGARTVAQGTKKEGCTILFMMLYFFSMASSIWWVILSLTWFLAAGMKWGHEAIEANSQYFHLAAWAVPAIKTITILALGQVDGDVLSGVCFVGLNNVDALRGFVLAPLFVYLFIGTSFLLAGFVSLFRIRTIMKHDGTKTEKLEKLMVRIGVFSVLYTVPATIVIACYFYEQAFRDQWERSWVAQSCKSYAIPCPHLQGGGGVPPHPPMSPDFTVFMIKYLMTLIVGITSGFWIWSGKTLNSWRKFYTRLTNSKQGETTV
T5 sequence (Q14332 24-565): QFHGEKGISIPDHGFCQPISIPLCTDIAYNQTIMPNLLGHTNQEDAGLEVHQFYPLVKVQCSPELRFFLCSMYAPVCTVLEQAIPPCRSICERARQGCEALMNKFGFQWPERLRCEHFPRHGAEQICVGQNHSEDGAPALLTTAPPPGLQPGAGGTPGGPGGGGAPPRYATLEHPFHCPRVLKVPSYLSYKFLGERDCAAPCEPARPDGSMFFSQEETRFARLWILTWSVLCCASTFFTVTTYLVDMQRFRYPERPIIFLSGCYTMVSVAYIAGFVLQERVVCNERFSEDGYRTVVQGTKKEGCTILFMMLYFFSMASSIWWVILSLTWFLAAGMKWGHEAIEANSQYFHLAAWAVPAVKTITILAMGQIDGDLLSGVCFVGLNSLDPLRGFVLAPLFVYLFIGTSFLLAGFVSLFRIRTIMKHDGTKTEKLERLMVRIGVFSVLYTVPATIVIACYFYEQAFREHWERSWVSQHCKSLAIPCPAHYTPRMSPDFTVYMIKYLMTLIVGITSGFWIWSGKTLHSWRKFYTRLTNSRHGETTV
T3 sequence (O70421 69-642): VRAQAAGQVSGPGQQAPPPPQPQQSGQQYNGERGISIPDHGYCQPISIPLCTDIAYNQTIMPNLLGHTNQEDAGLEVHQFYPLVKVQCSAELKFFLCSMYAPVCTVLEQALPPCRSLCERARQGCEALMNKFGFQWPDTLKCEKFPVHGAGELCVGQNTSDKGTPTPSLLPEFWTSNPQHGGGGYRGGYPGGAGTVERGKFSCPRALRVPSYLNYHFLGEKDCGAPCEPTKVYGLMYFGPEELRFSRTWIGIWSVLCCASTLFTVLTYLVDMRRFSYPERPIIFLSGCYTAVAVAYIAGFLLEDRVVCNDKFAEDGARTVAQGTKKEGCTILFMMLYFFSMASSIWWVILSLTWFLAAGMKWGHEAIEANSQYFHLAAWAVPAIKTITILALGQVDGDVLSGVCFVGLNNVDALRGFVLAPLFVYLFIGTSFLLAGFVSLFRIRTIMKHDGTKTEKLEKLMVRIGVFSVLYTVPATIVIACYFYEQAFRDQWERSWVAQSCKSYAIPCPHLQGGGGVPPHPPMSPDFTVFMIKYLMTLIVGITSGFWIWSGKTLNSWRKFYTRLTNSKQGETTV
T2 sequence (Q13467 27-585): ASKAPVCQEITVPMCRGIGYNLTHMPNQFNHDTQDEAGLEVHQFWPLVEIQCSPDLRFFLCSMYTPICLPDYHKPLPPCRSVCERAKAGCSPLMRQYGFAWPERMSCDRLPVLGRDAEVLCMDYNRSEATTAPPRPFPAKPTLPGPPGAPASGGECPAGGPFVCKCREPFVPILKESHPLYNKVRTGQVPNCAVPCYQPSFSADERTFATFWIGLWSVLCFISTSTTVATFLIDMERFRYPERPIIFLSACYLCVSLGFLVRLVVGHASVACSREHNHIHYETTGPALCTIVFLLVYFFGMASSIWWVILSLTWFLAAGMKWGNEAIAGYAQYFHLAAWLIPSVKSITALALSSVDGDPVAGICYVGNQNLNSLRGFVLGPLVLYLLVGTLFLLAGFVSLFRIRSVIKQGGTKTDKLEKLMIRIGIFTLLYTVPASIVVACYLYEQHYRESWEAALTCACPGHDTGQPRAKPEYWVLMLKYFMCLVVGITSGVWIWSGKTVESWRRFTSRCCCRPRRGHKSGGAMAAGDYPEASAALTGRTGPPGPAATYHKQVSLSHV
T4 sequence (Q9UP38 70-647): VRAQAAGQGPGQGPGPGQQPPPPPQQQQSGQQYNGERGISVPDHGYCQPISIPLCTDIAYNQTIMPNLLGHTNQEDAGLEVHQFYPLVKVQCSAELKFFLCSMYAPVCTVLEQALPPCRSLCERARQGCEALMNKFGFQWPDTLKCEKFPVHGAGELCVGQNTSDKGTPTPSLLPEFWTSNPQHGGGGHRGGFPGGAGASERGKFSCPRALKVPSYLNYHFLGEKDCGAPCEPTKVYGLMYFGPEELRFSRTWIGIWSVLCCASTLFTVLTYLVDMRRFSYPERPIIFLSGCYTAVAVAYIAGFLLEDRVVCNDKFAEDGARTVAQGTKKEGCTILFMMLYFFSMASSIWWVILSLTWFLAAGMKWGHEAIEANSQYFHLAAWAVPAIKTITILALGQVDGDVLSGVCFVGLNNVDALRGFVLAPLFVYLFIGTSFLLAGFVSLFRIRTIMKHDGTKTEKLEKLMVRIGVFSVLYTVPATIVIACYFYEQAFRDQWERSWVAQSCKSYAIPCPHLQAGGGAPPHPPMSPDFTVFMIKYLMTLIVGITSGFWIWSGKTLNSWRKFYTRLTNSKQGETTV

SMILES: CSCC[C@H](NC(=O)CNC(=O)[C@H](CCC(=O)O)NC(=O)[C@H](CO)NC(=O)[C@@H](NC(=O)[C@H](CCCCN)NC(=O)[C@H](CC(N)=O)NC(=O)[C@H](CS)NC(C)=O)[C@@H](C)O)C(=O)N[C@@H](CC(=O)O)C(=O)NCC(=O)N[C@@H](CS)C(=O)N[C@@H](CCC(=O)O)C(=O)N[C@@H](CC(C)C)C(N)=O [UM206, Ac-Cys-Asn-Lys-Thr-Ser-Glu-Gly-Met-Asp-Gly-Cys-Glu-Leu-NH2] (Ac-CNKTSEGMDGCEL-NH2)
- Blocking of Wnt3a-induced luciferase activity, rFzd-1 [1]: blocked almost completely; also recorded: abolished the induction of luciferase activity almost completely
- Effect on Wnt3a-induced luciferase activity, frizzled-5 [2]: no effect
- Antagonizing activation of mouse Fzd-1 by Wnt3a [3]: fully effective
- Antagonizing activation of human Fzd-1 by Wnt3a [4]: fully effective
- Antagonizing activation of human Fzd-2 by Wnt3a [5]: fully effective
- Activity on the frizzled receptor (in words) [6]: very potent antagonist
- IC50 (range in words) [6]: in the nanomolar range
- Luciferase activity induced by the peptide by itself [7]: none of the three peptides by itself could induce an increase in luciferase activity
- effect of UM206 alone on cell migration [8]: no effect
- Counteraction of Wnt3a/Wnt5a-induced attenuation of migration ([8]; UM206 1.10^−8 M, Fzd-1 or -2 overexpression): migration was reset to the migration speed of the control; also recorded: blocked completely; also recorded: block this effect completely
- influence on gene expression in the kidney ([9]; UM206 for five weeks): These data indicate that UM206 had no influence on gene expression in the kidney.
- Rel. exp. Col I ([9]; kidney): 1.39
- Rel. exp. DDK 1 ([9]; kidney): 1.87
- Rel. exp. DDK 2 ([9]; kidney): 1.44
- Rel. exp. DDK 3 ([9]; kidney): 0.87
- Rel. exp. FN ([9]; kidney): 1.66
- Rel. exp. LEF ([9]; kidney): 1.70
- Rel. exp. Twist ([9]; kidney): 1.49
- Rel. exp. α-SMA ([9]; kidney): 1.21
- Rel. exp. α-actin ([9]; kidney): 1.06
- time until steady state is reached [10]: ~10 h
